Assay results reported in patent publication US20140005070A1, “MARKERS ASSOCIATED WITH CYCLIN-DEPENDENT KINASE INHIBITORS” (Novartis AG, priority 2011, published 2014).

What was measured:
[1] = tested on: MCL1; test: Dog toxicology study, TaqMan mRNA in white blood cells after CDKI(7): MCL1; assay type: in vivo
Procedure: As part of a dog toxicology study, CDKI(7) was administered to dogs. White blood cells were harvested and MEPCE, MYC and MCL1 gene expression was assessed as PD markers. mRNA levels of each of these PD markers were measured by TaqMan® at various time points after CDKI(7) treatment.
The study had three groups of three dogs each. Dogs in Group 1 (#101, #102, and #103) were treated with CDKI(7) at 0.5 mg/kg, dogs in Group 2 (#104, #105, and #106) were treated at 1 mg/kg CDKI(7) and dogs in Group 3 (#107, #108, and #109) were treated at 2 mg/kg CDKI(7). Samples were collected before treatment (0 hour), 3 hours, 7 hours and 24 hours after treatment for a total of 12 samples per group. Blood samples were received frozen in QIAGEN RNA protect® Animal Blood tubes (Cat. # 76554 QIAGEN-Valencia, Calif., USA). RNA samples were extracted using the QIAGEN RNeasy® Protect Animal Blood kit (Cat. # 73224). RNA samples were quantified using the RNA Quant-iT RNA® assay from Invitrogen (Cat. # Q32852 Invitrogen—Grand Island, N.Y., USA) and read on an Invitrogen Qubit fluorometer® (Cat. # Q32857). First strand cDNA synthesis was performed on 500 ng of RNA in a reaction volume of 20 μl using a High Capacity cDNA Reverse Transcription Kit® from Applied Biosystems (Cat. # 4368814 Applied Biosystems, Carlsbad, Calif., USA). The cDNA samples were then diluted to obtain a 10 ng cDNA input for the TaqMan® reaction. TaqMan® reactions were run in triplicates using a TaqMan® Gene Expression Master Mix from Applied Biosystems (Cat. # 4369016) on an ABI 7500® machine. The 18S rRNA level was used as an endogenous control for variations in cDNA input. The relative quantification method was used to analyze the data; this method uses one sample as a calibrator sample and express mRNA levels relative to that sample. The results were expressed as RQ values (Relative Quantification) with RQ Min and RQ Max values determining a 95% confidence interval for the real RQ value. The samples were grouped according to the dose and each group was treated as a separate experiment with one of the pre-dose samples used as a calibrator sample. The logarithm of the RQ values are plotted so that increases or decreases from the initial value can be more easily represented; on a logarithmic scale: a 10-fold increase or 10-fold decrease in RQ value are represented as +1 and −1 respectively.
The MCL1 gene encodes a pro-survival factor that is often amplified in cancer and we have previously shown that its mRNA is short-lived and sensitive to CDK9 inhibition (see FIG. 2). The mRNA levels were determined by TaqMan® using the relative quantification method. The calibrator samples are dog #101 at 0 hour timepoint for the 0.5 mg/kg dose of CDKI(7), dog #104 at 0 hour timepoint for the 1 mg/kg dose and dog #107 at 0 hour timepoint for the 2 mg/kg dose. The logarithm (base 10) of the RQ values is plotted with the error bars representing the 95% confidence interval.

[2] = tested on: MEPCE; test: Western blot of MEPCE protein in NCI-H929 cells (FIG. 4); assay type: cell-based
Procedure: After treatment with a CDKI, cells were lysed in modified RIPA buffer containing 50 mM TRIS pH 7.4, 150 mM NaCl, 1 mM EDTA, 1% Brij-35, 0.1% deoxycholate, protease inhibitors (Roche Molecular Biochemicals, Mannheim, Germany). SDS-PAGE (4-12% gel) was used to resolve the proteins in the lysate. After electrophoresis, the proteins were electrotransferred onto a polyvinylidene fluoride microporous membrane and immunodetected using standard procedures. FIG. 4 is a Western blot of the multiple myeloma line NCI-H929, treated with CDKI(7) or DMSO and gene expression analyzed at certain time points during the treatment. […] Thus, the reduction in expression of genes in response to CDKI seen at the mRNA level by microarray is confirmed at the protein level by Western blotting.

Structure (SMILES): O=C(Nc1cc(-c2cccc(NCC3CCOCC3)n2)c(Cl)cn1)[C@@H]1CCCNC1 [CDKI(7)]
- MCL1 mRNA regulation ([1]; 0.5 mg/kg): no significant down regulation
- increase of MCL1 mRNA ([1]; 1 mg/kg, 7 hour time point, two out of three dogs): 2 fold
- MCL1 down regulation at 7 hours ([1]; 2 mg/kg, 7 hours): not at 7 hours
- MCL1 mRNA regulation ([1]; 2 mg/kg, FIG. 8): consistent down regulation
- maximum down regulation of MCL1 mRNA ([1]; 2 mg/kg, at 3 hours, all three dogs): 2.7 fold
- MEPCE protein expression at the 16 hour time point ([2]; NCI-H929, Western blot, 16 hour): very little to undetectable levels of protein expression
- MEPCE protein expression over time ([2]; NCI-H929 multiple myeloma line, Western blot, versus DMSO): reduced over time
